# Several values for one entry are separate records, joined by “and”; a condition that tells them apart may be missing. Equal entries are not always repeated.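 Interpolation was linear, between the two tested concentrations surrounding the appropriate level; five concentrations were tested over 48 hours in 96-well plates. Abbreviation: GI50, concentration required for 50% inhibition of growth. TGI marks complete inhibition of growth.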
# How the values were obtained:
# Assay in all cases: NCI tumour cell line growth inhibition, 48 h
# [1] = system: SW-620 colon
# [2] = system: MCF7 breast
# [3] = system: OVCAR-5 ovarian
# [4] = system: HOP-92 NSCLC
# [5] = system: OVCAR-3 ovarian
# [6] = system: MOLT-4 leukemia
# [7] = system: OVCAR-4 ovarian
# [8] = system: BT-549 breast
# [9] = system: SN12C renal
# [10] = system: ACHN renal
Structure (SMILES),TGI [1] [µM],TGI [2],TGI [3],TGI [4],TGI [5],TGI [6] [µM],TGI [7],TGI [8],TGI [9],TGI [10],GI50 [1] [µM],GI50 [2] [µM],GI50 [3] [µM],GI50 [4] [µM],GI50 [5] [µM],GI50 [6] [µM],GI50 [7] [µM],GI50 [9] [µM],GI50 [10],GI50 [8] [µM]
c1ccc(CN2CCN3CCN(CC2)CCN(Cc2ccccc2)CC3)cc1,63.3,18.8 µM,28.6 µM,21.9 µM,24.5 µM,> 56.7,20.3 µM,17.6 µM,16.9 µM,65.6 µM,,,,,,,,,,
NC(N)=NCCCC(NC(=O)OCCCCn1ccc(N)nc1=O)C(=O)O (stereo not drawn),> 100,> 100 µM,> 100 µM,> 100 µM,> 100 µM,> 100,> 100 µM,> 100 µM,> 100 µM,> 100 µM,,,,,,,,,,
CCC(NC1=NCCO1)c1cccs1 (stereo not drawn),> 100,29 µM,30.7 µM,32.6 µM,30.6 µM,> 100,44.5 µM,37.7 µM,,29.4 µM,,,,,,,,,,
CC1(C)CCc2c(c(N=Nc3ccc(F)cc3)c3ccccc3c2O)O1,> 100,> 100 µM,> 100 µM,> 100 µM,70.8 µM,> 100,> 100 µM,> 100 µM,> 100 µM,> 100 µM,,,,,,,,,,
O=C1C(=Cc2ccc(Cl)c(Cl)c2)C([O-])=C([P+](c2ccccc2)(c2ccccc2)c2ccccc2)C([O-])=C1[P+](c1ccccc1)(c1ccccc1)c1ccccc1,6.75,11.2 µM,12.6 µM,4.86 µM,3.74 µM,3.84,10.4 µM,5.19 µM,6.47 µM,9.26 µM,,,,,,,,,,
CC(=O)c1c2n(n(-c3ccccc3)c1=O)C(=O)c1nccnc1-2,> 100,> 100 µM,> 100 µM,> 100 µM,> 100 µM,> 100,> 100 µM,> 100 µM,> 100 µM,> 100 µM,,,,,,,,,,
C=C1CN(C2=NCCO2)C1,> 100,> 100 µM,> 100 µM,> 100 µM,> 100 µM,> 100,> 100 µM,> 100 µM,> 100 µM,> 100 µM,,,,,,,,,,
CCN1CCC(O)(/C=C/c2ccc(C(C)C)cc2)C(C(=O)/C=C/c2ccc(C(C)C)cc2)C1 (stereo not drawn),7.25,14 µM,12 µM,3.69 µM,11.7 µM,5.18,8.71 µM,16.2 µM,6.06 µM,3.31 µM,,,,,,,,,,
S=c1[nH]c2ccc(I)cc2c(=S)n1Cc1ccccc1,14.7,> 100 µM,43.9 µM,9.34 µM,8.07 µM,13.4,> 100 µM,27 µM,13.4 µM,58.7 µM,,,,,,,,,,
CCOc1ccc2c(c1)c(=O)c1c(NCCN(CC)CC)ccc3nnn2c31,31.5,> 68.7 µM,> 54.8 µM,> 100 µM,> 100 µM,> 59.9,26.3 µM,> 100 µM,> 100 µM,> 56.1 µM,,,,,,,,,,
Cc1ccc(-n2cc([Si](C)(C)C)nn2)s1,> 100,> 100 µM,> 100 µM,> 100 µM,> 100 µM,,> 100 µM,> 100 µM,> 100 µM,> 100 µM,,,,,,,,,,
O=c1[nH]c(=S)c2cc3c(=S)[nH]c(=O)n(CCO)c3nc2n1CCO,> 100,> 100 µM,> 100 µM,> 100 µM,> 100 µM,> 100,> 100 µM,> 100 µM,> 100 µM,> 100 µM,,,,,,,,,,
O=c1c2ccccc2nc(N/N=C/c2ccccc2O)n1-c1ccccc1,> 100,> 100 µM,> 100 µM,81.3 µM,17.2 µM,,43.2 µM,> 100 µM,> 100 µM,> 100 µM,,,,,,,,,,
Cn1c(O)c(C=Nc2ccccc2Cl)c(=O)n(C)c1=O,> 100,> 100 µM,63.2 µM,> 100 µM,49.5 µM,61.5,98.6 µM,> 100 µM,> 100 µM,92.2 µM,,,,,,,,,,
C/C=C(/C)C(=O)O[C@H]1[C@H](O)CC(c2ccc3c(c2O)C(O)=C2C(=O)C4(OC)C(O)=C(C(N)=O)C(=O)[C@H](CC(=O)c5ccccc5O)C4CC2[C@@]3(C)OC)O[C@@H]1C (stereo partly drawn),1.13,1.15 µM,2.02 µM and 0.916 µM,0.625 µM,1.9 µM,10.5,17 µM,0.892 µM,1.39 µM and 0.198 µM,3.96 µM,,,,,,,,,,
COc1ccc(C2=NN=C3C(c4ccccc4)=Nc4ccccc4N3C2)cc1,> 100,85 µM,> 100 µM,> 100 µM,6.52 µM,33.4,45.6 µM,> 100 µM,> 100 µM,> 100 µM,,,,,,,,,,
Cc1cn(S(=O)(=O)c2ccccc2)c2c(OCc3ccccc3)cc(NS(C)(=O)=O)cc12,> 100,27.3 µM,> 100 µM,> 89.8 µM,> 75.7 µM,> 24.8,> 100 µM,> 100 µM,> 70.2 µM,> 100 µM,,,,,,,,,,
C=CCC(C(=O)Nc1cccc2[nH]cnc12)C(=O)OCC (stereo not drawn),> 100,> 100 µM,> 100 µM,> 100 µM,> 100 µM,> 100,> 100 µM,> 100 µM,> 100 µM,> 100 µM,,,,,,,,,,
CN(C)/N=N/c1nc[nH]c1C(N)=O,> 1000,> 1000 µM,> 1000 µM,87.1 µM and 796 µM,> 1000 µM,,> 1000 µM,> 1000 µM,> 1000 µM,> 1000 µM,32.9,154,> 788,74,101,17.8,40.1,60.6,32.5 µM and 76.6 µM,
C=C(C(=O)O[C@H]1C(=O)C2=C(C)CCC3C(=C)C(=O)O[C@@H]3C2[C@]1(C)O)C1CC[C@]2(C)CCCC(=C)[C@H]2C1 (stereo partly drawn),21.2,8.81 µM and 10.8 µM,25 µM and 41 µM,14.2 µM and 11.3 µM,9.84 µM and 9.06 µM,5.38,13.4 µM and 11.3 µM,14 µM and 11.1 µM,15.5 µM and 8.62 µM,11 µM and 8.85 µM,,1.75,9.64,7.27,3.39,,6.69,7.25,5.19 µM,6.99

# Source: PubChem BioAssay (NCI)
